The text below walks through data of patent publication US5091539A, “Azolyl cycloalkanol derivatives and agricultural fungicides” (Shionogi & Co., Ltd., priority 1984, dated 1992).

Assay [1] relates to Rhizoctonia solani. Description: Control test to damping-off of cucumber (Rhizoctonia solani). The class given is in vivo. The settings on record: soil drench, 14 days. The protocol: (§1) (1) The fungus causing damping-off of cucumber seedlings, Rhizoctonia solani or Fusarium oxysporum was cultured on a wheat bran medium at 28° C. for 5 days, which was mixed with sterilized soil and cultured for 2 days to prepare the inoculum. Sterilized soil (150 g) was put into a pot of 9 cm in diameter. The surface of the spot was covered with the above inoculum. […] Twenty cucumber seeds (Cultivar: Matsukaze) were sown 2 days after. The pots were kept at 30°±2° C. for 14 days. The infection was observed 14 days after and disease degree and percent disease degree were obtained by setting an evaluation index for each disease sympton.
(§2) (2) Evaluation [formula] wherein a: number of seeds without germination b: number of seedlings showing damping-off c: number of wilted seedlings d: number of seedlings being a little brownish in cotyledons or at the bottom of the stem e: number of uninfected seedlings [formula] wherein a: number of seeds without germination or seedlings with damping-off b: number of wilted seedlings c: number of seedlings being a little brownish in cotyledons or at the bottom of the stem d: number of uninfected seedlings [formula]

The subject of assay [2] is Cochiobolus sativus. Description: Anti-fungal activity in vitro. The class given is cell-based. Conditions: 48 h; GY medium, 28° C., 2 days. The protocol: (§3) (1) Each test compound was diluted by two-fold dilution with GY medium (2% glucose and 0.4% yeast extract) containing 0.01% Tween 80 (trademark). Every diluted solution was inoculated with spore suspension (10^5-5 spores/ml) of Alternaria kikuchiana or a hyphae disk with agar (4 mm in diameter) of other fungi and incubated at 28° C. for 2 days.

Assay [3] has as its system Vasla ceratosperma. Description: Anti-fungal activity in vitro. The class given is cell-based. Conditions: 48 h; GY medium, 28° C., 2 days. The protocol:
as §3

The subject of assay [4] is Monilinia fructicola. Description: Anti-fungal activity in vitro. The class given is cell-based. Conditions: 48 h, GY medium, 28° C., 2 days. The protocol:
as §3

For assay [5], the system named is Pyrenophora graminea. Description: Anti-fungal activity in vitro. The class given is cell-based. Conditions: 48 h, GY medium, 28° C., 2 days. The protocol:
as §3

In assay [6] the test system is Ustilago nuda. Put plainly: Anti-fungal activity in vitro. It is filed as cell-based. The settings on record: 48 h, GY medium, 28° C., 2 days. The protocol:
as §3

The test system of assay [7] is Alternaria kikuchiana. Put plainly: Anti-fungal activity in vitro. The class given is cell-based. The settings on record: 48 h, GY medium, 28° C., 2 days, spore suspension. The protocol: as §3
Assay [8] deals with Diaporthe citri. Description: Anti-fungal activity in vitro. It is filed as cell-based. The settings on record: 48 h, GY medium, 28° C., 2 days. The protocol:
as §3

The subject of assay [9] is Corticium rolfsii. Put plainly: Anti-fungal activity in vitro. It is filed as cell-based. The settings on record: Agroathelia rolfsii, 48 h; GY medium, 28° C., 2 days. The protocol: as §3
Assay [10] deals with Fusarium oxysporum. Description: Control test to damping-off of cucumber (Fusarium oxysporum). It is filed as in vivo. The settings on record: 500 ppm, soil drench, 14 days. The protocol:
as §1, §2

For assay [11], the system named is Sphaerotheca fuliginea. Description: Control test to powdery mildew of cucumber (foliar and soil treatment). The class given is in vivo. Conditions: for Foliar Treatment, Curative Effect / Foliar Treatment, Protective Effect / Soil Treatment, Protective Effect: index 0-10.
Assay [12] concerns Cladosporium herbarum. Description: Anti-fungal activity in vitro. It is filed as cell-based. Conditions: 48 h, GY medium, 28° C., 2 days. The protocol:
as §3

For assay [13], the system named is Puccinia coronata. Put plainly: Control test of crown rust of oat. The class given is in vivo. The protocol: (1) Young oats (Cultivar: Pc38) grown in pots in a greenhouse were (i) sprayed with 10 ml each of solution of the test compounds at a prescribed concentration and after air-drying, they were inoculated with 15 mg of uredospores of Puccinia coronata per 20 pots (protective spraying) or (ii) sprayed with the test solution 3 days after inoculation of uredospores. After each plant was kept at 20°-25° C. in a greenhouse for 2 weeks, number of uredia was counted on the first leaf.

The test system of assay [14] is Sclerotinia sclerotiorum. Description: Control test to Sclerotinia rot of cucumber. The class given is in vivo. The source says:
(1) This test was practised in the same manner as in the above test, control test of Botrytis rot (gray mold) of cucumber, except for using the mycelium of Sclerotinia sclerotiorum as inoculm. The same as in test 2.

In assay [15] the test system is Botrytis cinerea. Description: Control test of Botrytis rot (gray mold) of cucumber. The class given is in vivo. The protocol: (1) Seedlings of cucumber (Cultivar: Matsukaze) were planted in a pot of 9 cm in diameter. The first leaf was sprayed with 3 ml each of solutions containing the test compound at the concentration of 125 or 31.3 ppm and the plant was dried by the air. After inoculation of the spores of Botrytis cinerea, the plants were kept at 20°±2° C. and 90-100% humidity ((i) protective spraying). Alternatively, the spores were inoculated at first and when the leaves suffered a little (about 2 days after), the solutions of the test compounds were sprayed ((ii) curative spraying). Evaluation was practised 3 days after the inoculation. Percent disease control was calculated by the ratio of diameter of diseased area in treated and untreated plants.
(1) Test methods and evaluation are the same as those in Tests 2, 4 and 6.

The structures appear in SMILES notation. ≈ marks a conversion by molar mass, not a printed value.

Turning to `O[C@@]1(c2sc(Cl)c(Cl)c2Cl)CCCC[C@H]1n1cncn1` (relative stereo) [Compound 12, cis-1-(3,4,5-trichloro-2-thienyl)-2-(1,2,4-triazol-1-yl)cyclohexanol], the “Disease Degree” value in assay [1] (500 ppm) is given as 0; in [10] it was 17. Besides, the “Percent Disease Control” value in assay [1] (500 ppm) was 100%; in [10], 83%. For the same compound, the minimal inhibitory concentration (MIC) was 3.13 µg/mL (≈ 8.88 µM) in assay [2]; 3.13 µg/mL (≈ 8.88 µM) in [3]; 1.56 µg/mL (≈ 4.42 µM) in assay [4]; 6.25 µg/mL (≈ 17.7 µM) in [5]; 6.25 µg/mL (≈ 17.7 µM) in assay [6]; 25 µg/mL (≈ 70.9 µM) in assay [7]. For the same compound, the MIC came to 3.13 µg/mL (≈ 8.88 µM) in [8] and 1.56 µg/mL (≈ 4.42 µM) in [9]. Also, the “Protective Index, Foliar Treatment” value in assay [11] (first Table 4, 125 ppm, foliar, 14 days) stood at 10. In assay [11] (first Table 4, 125 ppm, soil, 14 days), the “Protective Index, Soil Treatment” value was found to be 10.

Take `OC(c1ccc(Cl)cc1)(c1cncnc1)c1ccccc1Cl` (centres unmarked) [Fenarimol, reference compound]: the MIC in [12] is > 50 µg/mL; in assay [2] it was 1.56 µg/mL (≈ 4.71 µM); in assay [3], 12.5 µg/mL (≈ 37.7 µM); in [4] it was 3.13 µg/mL (≈ 9.45 µM); in assay [5], 12.5 µg/mL (≈ 37.7 µM); in assay [6] it was 25 µg/mL (≈ 75.5 µM). Moreover, the values for the MIC in assay [7], in [8] and in assay [9] were 6.25 µg/mL (≈ 18.9 µM), > 50 µg/mL and 25 µg/mL (≈ 75.5 µM), respectively. The “Percent Disease Control, Curative Spraying” value in [13] (12.5 ppm) is listed as 75%; in [13] (25 ppm), 92%; in assay [13] (50 ppm) it was 98%. In addition, the “Percent Disease Control, Protective Spraying” value in [13] (12.5 ppm) was 62%; in assay [13] (25 ppm), 89%; in assay [13] (50 ppm), 100%.

On to `O[C@@]1(c2ccc(Cl)cc2)CCCCC[C@H]1n1cncn1` (relative stereo) [Compound 24, cis-1-(4-chlorophenyl)-2-(1,2,4-triazol-1-yl)cycloheptanol], for which the “Percent Disease Control, Curative Spraying” value in assay [14] (31.3 ppm) is on record as 96%; in [14] (125 ppm), 97%; in assay [15] (Table 2, 31.3 ppm), 86%; in [15] (Table 2, 125 ppm), 94%. Further, the “Percent Disease Control, Protective Spraying” value is 100% in [14] (31.3 ppm); 100% in assay [14] (125 ppm); 100% in [15] (Table 2, 31.3 ppm); 100% in assay [15] (Table 2, 125 ppm). Also, the minimum inhibitory concentration (MIC) amounted to 6.25 µg/mL (≈ 21.4 µM) in assay [12]; 6.25 µg/mL (≈ 21.4 µM) in assay [2]; 0.2 µg/mL (≈ 0.685 µM) in assay [4]; 12.5 µg/mL (≈ 42.8 µM) in [5]; 1.56 µg/mL (≈ 5.35 µM) in assay [6]; 12.5 µg/mL (≈ 42.8 µM) in [7]. Also, the values for the MIC in [8] and in assay [9] were 25 µg/mL (≈ 85.7 µM) and 50 µg/mL (≈ 171 µM), respectively. Moreover, the “Foliar Treatment, Curative Effect” value in assay [11] (second Table 4, 0.5 ppm) was determined as 10; in assay [11] (second Table 4, 2.0 ppm), 10; in assay [11] (second Table 4, 7.8 ppm) it was 10; in assay [11] (second Table 4, 31.3 ppm), 10. The “Foliar Treatment, Protective Effect” value is 5 (Disease sign is observed on the leaf in about 30%.) in assay [11] (second Table 4, 0.5 ppm); 10 in assay [11] (second Table 4, 2.0 ppm); 10 in assay [11] (second Table 4, 7.8 ppm); 10 in [11] (second Table 4, 31.3 ppm). Moreover, the “Soil Treatment, Protective Effect” value in assay [11] (second Table 4, 0.5 ppm) is 0; in [11] (second Table 4, 2.0 ppm), 0; in [11] (second Table 4, 7.8 ppm), 10; in [11] (second Table 4, 31.3 ppm) it was 10.

On to `O[C@@]1(c2ccccc2Cl)CCCC[C@H]1n1cncn1` (relative stereo) [Compound 32], for which the “Disease Degree” value in [1] (31.3 ppm) was 10. Moreover, in [1] (31.3 ppm), the “Percent Disease Control” value amounted to 90%. For the same compound, the results for the “Percent Disease Control, Curative Spraying” value in [14] (31.3 ppm) and in assay [14] (125 ppm) were 86% and 94%, respectively. Further, the “Percent Disease Control, Protective Spraying” value in assay [14] (31.3 ppm) worked out at 72%; in [14] (125 ppm) it was 100%. The MIC in [12] was 1.56 µg/mL (≈ 5.62 µM); in [2] it was 3.13 µg/mL (≈ 11.3 µM); in assay [4] it was 0.39 µg/mL (≈ 1.4 µM); in assay [5], 1.56 µg/mL (≈ 5.62 µM); in assay [6], 3.13 µg/mL (≈ 11.3 µM); in assay [7], 3.13 µg/mL (≈ 11.3 µM). Further, the MIC came to 3.13 µg/mL (≈ 11.3 µM) in assay [8] and 12.5 µg/mL (≈ 45 µM) in assay [9]. Further, the “Foliar Treatment, Curative Effect” value was 7 (Disease sign is observed on the leaf in about 20%.) in assay [11] (second Table 4, 0.5 ppm); 10 in [11] (second Table 4, 2.0 ppm); 10 in [11] (second Table 4, 7.8 ppm); 10 in assay [11] (second Table 4, 31.3 ppm). The “Foliar Treatment, Protective Effect” value in [11] (second Table 4, 0.5 ppm) turned out to be 0; in assay [11] (second Table 4, 2.0 ppm) it was 9; in assay [11] (second Table 4, 7.8 ppm), 10; in assay [11] (second Table 4, 31.3 ppm), 10. Also, the “Soil Treatment, Protective Effect” value is 0 in assay [11] (second Table 4, 0.5 ppm); 0 in [11] (second Table 4, 2.0 ppm); 10 in assay [11] (second Table 4, 7.8 ppm); 10 in [11] (second Table 4, 31.3 ppm).

What is called MIC is the smallest concentration in the dilution series that meets the test's criterion for growth inhibition. A high value points to a need for much substance.
